{"source": "patent US5071857A", "about": "“2,6-dioxopiperidine derivatives, their preparation and pharmaceutical compositions containing them” (National Research Development Corporation, priority 1983, dated 1991)", "key": {"[1]": {"system": "central nervous system", "assay": "Behavioral observations (Irwin observational assessment)", "conditions": "10 mg/kg i.p., particularly on the rotarod"}, "[2]": {"conditions": "prior art; cited from earlier work"}, "[3]": {"biological_target": "T1, aromatase (Homo sapiens, UniProt P11511)", "T1 construct": "Aromatase was obtained from the microsomal fraction of human placental tissue; from tissue; host or cells: human placenta, microsomal fraction", "T1 sequence (P11511 1-503)": "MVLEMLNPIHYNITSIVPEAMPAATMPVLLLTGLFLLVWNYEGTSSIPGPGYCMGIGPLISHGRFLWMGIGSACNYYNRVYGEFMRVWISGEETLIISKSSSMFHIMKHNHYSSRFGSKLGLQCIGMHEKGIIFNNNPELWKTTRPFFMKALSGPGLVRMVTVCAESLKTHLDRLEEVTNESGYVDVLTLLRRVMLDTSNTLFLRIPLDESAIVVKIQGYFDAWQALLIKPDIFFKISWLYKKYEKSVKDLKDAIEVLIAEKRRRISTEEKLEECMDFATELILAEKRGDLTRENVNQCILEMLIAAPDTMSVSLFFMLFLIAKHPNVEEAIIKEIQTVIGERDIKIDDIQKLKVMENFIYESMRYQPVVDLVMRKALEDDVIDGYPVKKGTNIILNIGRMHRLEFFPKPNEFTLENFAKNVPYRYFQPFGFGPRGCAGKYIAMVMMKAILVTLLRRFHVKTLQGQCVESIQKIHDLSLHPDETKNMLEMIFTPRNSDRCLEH", "assay": "Inhibition of aromatase (microsomal fraction of human placental tissue, 3H2O release from (1,2-3H) testosterone)", "format": "biochemical", "protocol": "(§1) The activity of various glutarimides against the enzymes aromatase and desmolase was assayed as follows. Each compound was examined over a range of concentrations. At each concentration of inhibitor, samples were removed at three time points. The results were plotted on a graph of product released against time of incubation. The resulting linear graph was used to determine the rate of enzyme reaction at each concentration of inhibitor.\n(§2) A. Desmolase The mitochondrial fraction of bovine adrenal cortex provided the source of desmolase and the method of isolation was essentially as published by R. B. Hochberg et al., Biochemistry, 13, 603 (1974). The enzyme activity was assayed using (26-^14 C)-cholesterol as substrate and measuring the ^14 C-isocaproic acid released, see R. B. Hochberg et al., supra. and V. I. Uzgiris et al., Endocrinology, 101, 89 (1977). Inhibitor compounds were added in ethanol (microliters) and an equal volume of ethanol was added to the control assay. The total volume of the assay mixture was 1.0 ml. After preincubating the assay tubes at 30° C. for 5 minutes, the reaction was started by the addition of 1 mg of mitochondrial protein. Samples were removed after 2,4 and 6 minutes of incubation and the assay completed as described."}, "[4]": {"biological_target": "T2, desmolase (Bos taurus, UniProt P00189)", "T2 construct": "The mitochondrial fraction of bovine adrenal cortex provided the source of desmolase; from tissue; host or cells: bovine adrenal cortex, mitochondrial fraction", "T2 sequence (P00189 40-520)": "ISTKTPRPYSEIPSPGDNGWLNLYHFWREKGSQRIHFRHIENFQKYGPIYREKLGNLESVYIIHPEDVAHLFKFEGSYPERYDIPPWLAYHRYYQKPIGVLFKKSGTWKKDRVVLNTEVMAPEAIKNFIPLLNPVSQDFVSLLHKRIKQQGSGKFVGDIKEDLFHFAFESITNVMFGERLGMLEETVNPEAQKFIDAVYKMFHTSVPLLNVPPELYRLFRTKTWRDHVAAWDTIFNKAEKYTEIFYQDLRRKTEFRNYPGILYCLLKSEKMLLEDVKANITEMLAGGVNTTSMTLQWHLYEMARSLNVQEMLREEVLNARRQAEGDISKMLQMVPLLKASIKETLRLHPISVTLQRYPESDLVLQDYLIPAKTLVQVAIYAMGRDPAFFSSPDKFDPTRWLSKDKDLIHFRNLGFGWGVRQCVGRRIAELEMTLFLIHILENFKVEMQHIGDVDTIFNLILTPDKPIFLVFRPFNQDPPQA", "assay": "Inhibition of desmolase (mitochondrial fraction of bovine adrenal cortex, 14C-isocaproic acid release from (26-14C)-cholesterol)", "format": "biochemical", "protocol": "as §1, §2"}}, "data": [{"smiles": "CN(C)CCCN1c2ccccc2Sc2ccc(Cl)cc21", "note": "[chlorpromazine]", "values": [{"measurement": "unpredictable jumping and darting movements", "setting": "[1]", "value": "5 out of 8"}]}, {"smiles": "CCC1(c2ccccc2)CCC(=O)NC1=O", "note": "(stereo not shown) [glutethimide, 3-ethyl-3-phenylglutarimide]", "values": [{"measurement": "sedative, hypnotic or anti-convulsive effect", "setting": "[2]", "value": "sedative and hypnotic agent"}]}, {"smiles": "CCC1(c2cccc(N)c2)CCC(=O)NC1=O", "note": "(stereo not shown) [m-aminoglutethimide, 3-ethyl-3-(3-aminophenyl)glutarimide]", "values": [{"measurement": "Aromatase inhibition", "setting": "[3]", "value": "+"}, {"measurement": "Desmolase inhibition", "setting": "[4]", "value": "+ + +"}]}, {"smiles": "CCC1(c2ccccc2)CCC(=O)N(N)C1=O", "note": "(stereo not shown) [N-aminoglutethimide, 1-amino-3-ethyl-3-phenylglutarimide]", "values": [{"measurement": "Desmolase inhibition", "setting": "[4]", "value": "+ + +"}]}, {"smiles": "CCC1(c2cccnc2)CCC(=O)NC1=O", "note": "(stereo not shown)", "values": [{"measurement": "IC50 Aromatase", "setting": "[3]; 1.5 micromolar (3H) testosterone", "value": "None"}, {"measurement": "IC50 Desmolase", "setting": "[4]; 7 micromolar (14C) cholesterol", "value": "None"}]}]}
